Activity calls are given as the source filed them. No cut-off for these calls is given here. Non-standard residues stand in square brackets, D forms with d. Residues, ends and D or L forms follow the SMILES beside them. *: point of attachment. Phe(4-Br) = N[C@@H](Cc1ccc(Br)cc1)C(=O)O; Fmoc = O=C(OCC1c2ccccc2-c2ccccc21)*; PEG6 = NCCOCCOCCOCCOCCOCCOCCC(=O)O; Palmitoyl = CCCCCCCCCCCCCCCC(=O)*; NMeL = CN[C@@H](CC(C)C)C(=O)O; Nle = CCCC[C@H](N)C(=O)O; Aib = CC(C)(N)C(=O)O
Assays:
Mus musculus [1] = assay: Blood pressure lowering activity in anesthetized mouse assessed as change in mean arterial blood pressure at 1.4 uM/kg, iv; type: functional; details: TDE = time-dependent effect
[2] = molecular target: T1, Apelin receptor (Rattus norvegicus) (UniProt Q9JHG3); assay: Displacement of [125I]-(Glp1,Nle11,[…])apelin-13 from recombinant rat EGFP-fused apelin receptor expressed in CHO cell membrane measured after 3 hrs; type: cell membranes
T1 sequence (whole entry): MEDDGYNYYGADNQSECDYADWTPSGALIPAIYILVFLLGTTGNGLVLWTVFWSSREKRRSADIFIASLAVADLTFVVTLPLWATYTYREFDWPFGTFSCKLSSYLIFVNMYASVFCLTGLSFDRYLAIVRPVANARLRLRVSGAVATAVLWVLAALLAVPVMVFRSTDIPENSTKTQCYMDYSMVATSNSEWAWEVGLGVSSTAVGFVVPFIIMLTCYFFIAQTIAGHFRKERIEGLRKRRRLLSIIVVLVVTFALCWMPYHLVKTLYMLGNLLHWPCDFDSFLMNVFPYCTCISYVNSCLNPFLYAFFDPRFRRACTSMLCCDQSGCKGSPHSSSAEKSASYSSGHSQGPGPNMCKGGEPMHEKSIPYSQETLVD

Mus musculus [3] = assay: Blood pressure lowering activity in anesthetized mouse assessed as increase in heart rate at 1.4 uM/kg, iv measured up to 60 mins; type: functional, organism-based
[4] = test system: CSCC[C@H](NC(=O)[C@H](CO)NC(=O)[C@H](CO)NC(=O)[C@H](CC(C)C)NC(=O)[C@@H](N)CO)C(=O)N[C@H](C(=O)N[C@@H](CCCNC(=N)N)C(=O)N[C@H](C(=O)N[C@H](C(=O)NCC(=O)NCC(=O)O)C(C)C)C(C)C)[C@@H](C)O; assay: Substrate activity at human KLKB1 assessed as Km by spectrofluorimetric method; type: ADME
[5] = test system: CCCC[C@H](NC(=O)[C@@H]1CCCN1C(=O)CNC(=O)[C@H](CCCCN)NC(=O)[C@H](Cc1c[nH]cn1)NC(=O)[C@H](CO)NC(=O)[C@H](CC(C)C)N(C)C(=O)[C@H](CCCNC(=N)N)NC(=O)[C@@H]1CCCN1C(=O)[C@H](CCCNC(=N)N)NC(=O)[C@H](CCC(N)=O)NC(=O)[C@H](CCCNC(=N)N)NC(=O)[C@H](CCCNC(=N)N)NC(=O)[C@H](Cc1ccccc1)NC(=O)[C@@H](N)CCCCN)C(=O)NC(C)(C)C(=O)N[C@@H](Cc1ccc(Br)cc1)C(=O)O; assay: (§1) Substrate activity at recombinant human C-terminal His6-tagged KLKB1 (Pro19 to Ser262 residues) expressed in mammalian expression system assessed as Km measured after 30 to 60 mins by LC-MS analysis; type: ADME
[6] = test system: CCCC[C@H](NC(=O)[C@@H]1CCCN1C(=O)CNC(=O)[C@H](CCCCN)NC(=O)[C@H](Cc1c[nH]cn1)NC(=O)[C@H](CO)NC(=O)[C@H](CC(C)C)NC(=O)[C@H](CCCNC(=N)N)NC(=O)[C@@H]1CCCN1C(=O)[C@H](CCCNC(=N)N)NC(=O)[C@H](CCC(N)=O)NC(=O)[C@H](CCCNC(=N)N)NC(=O)[C@H](CCCNC(=N)N)NC(=O)[C@H](Cc1ccccc1)NC(=O)[C@@H](N)CCCCN)C(=O)NC(C)(C)C(=O)N[C@@H](Cc1ccc(Br)cc1)C(=O)O; assay: as §1; type: ADME
[7] = test system: CC[C@H](C)[C@H](NC(=O)[C@H](CCCNC(=N)N)NC(=O)[C@H](CO)NC(=O)[C@H](CO)NC(=O)[C@H](CCCNC(=N)N)NC(=O)[C@H](Cc1ccccc1)NC(=O)[C@@H]1CCCN1C(=O)[C@H](CO)NC(=O)[C@H](Cc1ccccc1)NC(=O)CNC(=O)c1ccccc1N)C(=O)N[C@@H](CCC(N)=O)C(=O)NCCNc1ccc([N+](=O)[O-])cc1[N+](=O)[O-]; assay: (§2) Substrate activity at human KLKB1 assessed as Km by fluorescence assay; type: ADME
[8] = test system: CC[C@H](C)[C@H](NC(=O)[C@H](CCCNC(=N)N)NC(=O)[C@H](CC(C)C)NC(=O)[C@H](CO)NC(=O)[C@H](CCCNC(=N)N)NC(=O)[C@H](Cc1ccccc1)NC(=O)[C@@H]1CCCN1C(=O)[C@H](CO)NC(=O)[C@H](Cc1ccccc1)NC(=O)CNC(=O)c1ccccc1N)C(=O)N[C@@H](CCC(N)=O)C(=O)NCCNc1ccc([N+](=O)[O-])cc1[N+](=O)[O-]; assay: as §2; type: ADME

Sequence of Plasma kallikrein (Homo sapiens) (chain, as listed by the source): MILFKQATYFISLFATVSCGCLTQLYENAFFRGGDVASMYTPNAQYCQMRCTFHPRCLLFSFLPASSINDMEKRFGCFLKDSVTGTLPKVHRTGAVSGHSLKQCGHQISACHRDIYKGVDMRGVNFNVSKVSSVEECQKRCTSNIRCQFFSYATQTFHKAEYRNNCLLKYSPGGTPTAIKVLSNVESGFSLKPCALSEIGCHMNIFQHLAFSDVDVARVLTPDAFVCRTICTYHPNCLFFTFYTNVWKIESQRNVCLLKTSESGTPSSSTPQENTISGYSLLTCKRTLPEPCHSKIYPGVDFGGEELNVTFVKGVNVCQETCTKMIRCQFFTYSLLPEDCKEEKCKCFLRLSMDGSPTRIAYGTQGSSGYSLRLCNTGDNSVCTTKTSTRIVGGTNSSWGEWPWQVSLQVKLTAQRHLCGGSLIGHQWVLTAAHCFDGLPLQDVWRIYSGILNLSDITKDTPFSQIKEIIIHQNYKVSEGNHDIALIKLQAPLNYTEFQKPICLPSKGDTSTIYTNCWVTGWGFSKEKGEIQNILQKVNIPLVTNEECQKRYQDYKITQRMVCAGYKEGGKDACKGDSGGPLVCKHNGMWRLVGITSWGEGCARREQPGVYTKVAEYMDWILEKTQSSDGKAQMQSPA

displacement activity (active/inactive) [2] | Molecule | Activity (Mus musculus [1]) | further results
– | CSCC[C@H](NC(=O)[C@@H]1CCCN1C(=O)CNC(=O)[C@H](CCCCN)NC(=O)[C@H](Cc1cnc[nH]1)NC(=O)[C@H](CO)NC(=O)[C@H](CC(C)C)NC(=O)[C@H](CCCNC(=N)N)NC(=O)[C@@H]1CCCN1C(=O)[C@H](CCCNC(=N)N)NC(=O)[C@H](CCC(N)=O)NC(=O)[C@H](CCCNC(=N)N)NC(=O)[C@H](CCCNC(=N)N)NC(=O)[C@H](Cc1ccccc1)NC(=O)[C@@H](N)CCCCN)C(=O)N1CCC[C@H]1C(=O)N[C@@H](Cc1ccccc1)C(=O)O | Tde | –
Active | CCCC[C@H](NC(=O)[C@@H]1CCCN1C(=O)CNC(=O)[C@H](CCCCN)NC(=O)[C@H](Cc1c[nH]cn1)NC(=O)[C@H](CO)NC(=O)[C@H](CC(C)C)NC(=O)[C@H](CCCNC(=N)N)NC(=O)[C@@H]1CCCN1C(=O)[C@H](CCCNC(=N)N)NC(=O)[C@H](CCC(N)=O)NC(=O)[C@H](CCCNC(=N)N)NC(=O)[C@H](CCCNC(=N)N)NC(=O)[C@H](Cc1ccccc1)NC(=O)[C@@H](N)CCCCN)C(=O)NC(C)(C)C(=O)N[C@@H](Cc1ccc(Br)cc1)C(=O)O (H-KFRRQRPRLSHKGP[Nle][Aib][Phe(4-Br)]-OH) | Tde | –
Active | CCCC[C@H](NC(=O)[C@@H]1CCCN1C(=O)CNC(=O)[C@H](CCCCN)NC(=O)[C@H](Cc1c[nH]cn1)NC(=O)[C@H](CO)NC(=O)[C@H](CC(C)C)N(C)C(=O)[C@H](CCCNC(=N)N)NC(=O)[C@@H]1CCCN1C(=O)[C@H](CCCNC(=N)N)NC(=O)[C@H](CCC(N)=O)NC(=O)[C@H](CCCNC(=N)N)NC(=O)[C@H](CCCNC(=N)N)NC(=O)[C@H](Cc1ccccc1)NC(=O)[C@@H](N)CCCCN)C(=O)NC(C)(C)C(=O)N[C@@H](Cc1ccc(Br)cc1)C(=O)O (H-KFRRQRPR[NMeL]SHKGP[Nle][Aib][Phe(4-Br)]-OH) | Tde | –
Active | CCCC[C@H](NC(=O)[C@@H]1CCCN1C(=O)CNC(=O)[C@H](CCCCN)NC(=O)[C@H](Cc1cnc[nH]1)NC(=O)[C@H](CO)NC(=O)[C@H](CC(C)C)NC(=O)[C@H](CCCNC(=N)N)NC(=O)[C@@H]1CCCN1C(=O)[C@H](CCCNC(=N)N)NC(=O)[C@H](CCC(N)=O)NC(=O)[C@@H](N)CCCNC(=N)N)C(=O)NC(C)(C)C(=O)N[C@@H](Cc1ccc(Br)cc1)C(=O)O (H-RQRPRLSHKGP[Nle][Aib][Phe(4-Br)]-OH) | Tde | –
Active | CCCC[C@H](NC(=O)[C@@H]1CCCN1C(=O)CNC(=O)[C@H](CCCCN)NC(=O)[C@H](Cc1cnc[nH]1)NC(=O)[C@H](CO)NC(=O)[C@H](CC(C)C)N(C)C(=O)[C@H](CCCNC(=N)N)NC(=O)[C@@H]1CCCN1C(=O)[C@H](CCCNC(=N)N)NC(=O)[C@H](CCC(N)=O)NC(=O)[C@@H](N)CCCNC(=N)N)C(=O)NC(C)(C)C(=O)N[C@@H](Cc1ccc(Br)cc1)C(=O)O (H-RQRPR[NMeL]SHKGP[Nle][Aib][Phe(4-Br)]-OH) | Tde | –
Active | CCCCCCCCCCCCCCCC(=O)N[C@@H](CCCCN)C(=O)N[C@@H](Cc1ccccc1)C(=O)N[C@@H](CCCNC(=N)N)C(=O)N[C@@H](CCCNC(=N)N)C(=O)N[C@@H](CCC(N)=O)C(=O)N[C@@H](CCCNC(=N)N)C(=O)N1CCC[C@H]1C(=O)N[C@@H](CCCNC(=N)N)C(=O)N[C@@H](CC(C)C)C(=O)N[C@@H](CO)C(=O)N[C@@H](Cc1cnc[nH]1)C(=O)N[C@@H](CCCCN)C(=O)NCC(=O)N1CCC[C@H]1C(=O)N[C@@H](CCCC)C(=O)NC(C)(C)C(=O)N[C@@H](Cc1ccc(Br)cc1)C(=O)O (Palmitoyl-KFRRQRPRLSHKGP[Nle][Aib][Phe(4-Br)]-OH) | Tde | –
Active | CCCCCCCCCCCCCCCC(=O)N[C@@H](CCCCN)C(=O)N[C@@H](Cc1ccccc1)C(=O)N[C@@H](CCCNC(=N)N)C(=O)N[C@@H](CCCNC(=N)N)C(=O)N[C@@H](CCC(N)=O)C(=O)N[C@@H](CCCNC(=N)N)C(=O)N1CCC[C@H]1C(=O)N[C@@H](CCCNC(=N)N)C(=O)N(C)[C@@H](CC(C)C)C(=O)N[C@@H](CO)C(=O)N[C@@H](Cc1cnc[nH]1)C(=O)N[C@@H](CCCCN)C(=O)NCC(=O)N1CCC[C@H]1C(=O)N[C@@H](CCCC)C(=O)NC(C)(C)C(=O)N[C@@H](Cc1ccc(Br)cc1)C(=O)O (Palmitoyl-KFRRQRPR[NMeL]SHKGP[Nle][Aib][Phe(4-Br)]-OH) | – | Activity (Mus musculus [3]): Active
– | Plasma kallikrein (Homo sapiens) | – | Km [4]: 2.4 µM; kcat [4]: 0.001 s⁻¹; kcat/Km [4]: 420 M⁻¹ s⁻¹; Km [5]: 245 µM; Vmax [5]: 3.71 µmol/min; kcat [5]: 16.5 s⁻¹; kcat/Km [5]: 67000 M⁻¹ s⁻¹; Km [6]: 30 µM; Vmax [6]: 0.316 µmol/min; kcat [6]: 1.4 s⁻¹; kcat/Km [6]: 47000 M⁻¹ s⁻¹; Km [7]: 2.2 µM; Km [8]: 1.8 µM

Molecule | displacement activity (active/inactive) [2] | Activity (Mus musculus [1]) | further results
CCCC[C@H](NC(=O)[C@@H]1CCCN1C(=O)CNC(=O)[C@H](CCCCN)NC(=O)[C@H](Cc1cnc[nH]1)NC(=O)[C@H](CO)NC(=O)[C@H](CC(C)C)NC(=O)[C@H](CCCNC(=N)N)NC(=O)[C@@H]1CCCN1C(=O)[C@H](CCCNC(=N)N)NC(=O)[C@H](CCC(N)=O)NC(=O)[C@H](CCCNC(=N)N)NC(=O)[C@H](CCCNC(=N)N)NC(=O)[C@H](Cc1ccccc1)NC(=O)[C@H](CCCCN)NC(=O)CCOCCOCCOCCOCCOCCOCCNC(=O)OCC1c2ccccc2-c2ccccc21)C(=O)NC(C)(C)C(=O)N[C@@H](Cc1ccc(Br)cc1)C(=O)O ({Fmoc-PEG6}-KFRRQRPRLSHKGP[Nle][Aib][Phe(4-Br)]-OH) | Active | Tde | –
CCCC[C@H](NC(=O)[C@@H]1CCCN1C(=O)CNC(=O)[C@H](CCCCN)NC(=O)[C@H](Cc1cnc[nH]1)NC(=O)[C@H](CO)NC(=O)[C@H](CC(C)C)N(C)C(=O)[C@H](CCCNC(=N)N)NC(=O)[C@@H]1CCCN1C(=O)[C@H](CCCNC(=N)N)NC(=O)[C@H](CCC(N)=O)NC(=O)[C@H](CCCNC(=N)N)NC(=O)[C@H](CCCNC(=N)N)NC(=O)[C@H](Cc1ccccc1)NC(=O)[C@H](CCCCN)NC(=O)CCOCCOCCOCCOCCOCCOCCNC(=O)OCC1c2ccccc2-c2ccccc21)C(=O)NC(C)(C)C(=O)N[C@@H](Cc1ccc(Br)cc1)C(=O)O ({Fmoc-PEG6}-KFRRQRPR[NMeL]SHKGP[Nle][Aib][Phe(4-Br)]-OH) | Active | Tde | –

Reference: ChEMBL document CHEMBL4400521, “Plasma kallikrein cleaves and inactivates apelin-17: Palmitoyl- and PEG-extended apelin-17 analogs as metabolically stable blood pressure-lowering agents” (Eur J Med Chem, 2019)
